Assay results: the NIST ThermoML archive (doi:10.1016/j.fluid.2004.12.013)

Experiment: excess molar enthalpy (molar enthalpy of mixing); xn = mol fraction of the nth substance listed
Conditions: 298.15 K, 101.3 kPa, Liquid

CCCCCCCCC [nonane] + CCCCCO
Conditions	excess molar enthalpy [kcal/mol]
x2 = 0.0545	0.0989
x2 = 0.0997	0.123
x2 = 0.1605	0.141
x2 = 0.2245	0.155
x2 = 0.2862	0.163
x2 = 0.3535	0.166
x2 = 0.4025	0.165
x2 = 0.4455	0.164
x2 = 0.4998	0.16
x2 = 0.5489	0.152
x2 = 0.6006	0.142
x2 = 0.6527	0.129
x2 = 0.7058	0.112
x2 = 0.7524	0.098
x2 = 0.7962	0.0789
x2 = 0.8478	0.0614
x2 = 0.8935	0.0411
x2 = 0.9382	0.0206

CCCCCCCCC [nonane] + COC(C)(C)C
Conditions	excess molar enthalpy [kcal/mol]
x2 = 0.0816	0.0313
x2 = 0.1472	0.0538
x2 = 0.1747	0.0633
x2 = 0.2383	0.0825
x2 = 0.2404	0.0825
x2 = 0.3312	0.102
x2 = 0.3912	0.109
x2 = 0.4867	0.116
x2 = 0.6601	0.104
x2 = 0.7157	0.0937
x2 = 0.7399	0.0887
x2 = 0.7773	0.0805
x2 = 0.8129	0.0729
x2 = 0.8723	0.0552
x2 = 0.895	0.0478
x2 = 0.9235	0.0413
x2 = 0.9285	0.0337
x2 = 0.9459	0.0301
x2 = 0.9573	0.0249
x2 = 0.9632	0.0196
